Laboratory results reported in patent publication US20110250184A1, “METHODS FOR DETERMINING EFFICACY OF A THERAPEUTIC REGIMEN AGAINST DELETERIOUS EFFECTS OF CYTOTOXIC AGENTS IN HUMAN” (priority 2008, published 2011).
Entries after “also recorded” stand apart in the source; their conditions may differ.

Legend:
[1] = tested on: white blood cells; test: White blood cell counts of irradiated mice; format: in vivo, C3H/HEJ mice
Experimental: FIG. 4. ON 01210.Na protects the bone marrow of irradiated mice. A. Mice were injected with 500 mg/kg of ON 01210.Na formulated in 1% Polysorbate 80/K-phosphate buffer or vehicle alone by sc injections minus 24 hrs and minus 15 minutes before 5.5 Gy of whole body ionizing radiation treatment. Whole blood was collected on the indicted days and WBC counts were performed following RBC lysis. The data is plotted as the average of three mice per group +/−SEM (N:3×3=9 plates). B. Pictures of representative plates. […] C. White blood cell counts. Whole blood was collected on the indicted days and WBC counts were performed following RBC lysis. The data is plotted as the average of 3 mice per group±SEM (N=3).
A. Mice were injected with 500 mg/kg of ON 01210.Na formulated in 1% Polysorbate 80/K-phosphate buffer or vehicle alone by sc injections minus 24 hrs and minus 15 minutes before 5.5 Gy of whole body ionizing radiation treatment. Whole blood was collected on the indicted days and WBC counts were performed following RBC lysis. The data is plotted as the average of three mice per group+/−SEM (N:3×3=9 plates). […]
In addition to examining the ability of ON 01210.Na to protect bone marrow cells, the protection of peripheral white blood cells was also examined. Whole blood was collected and the total number of white blood cells was determined at various times after radiation exposure.

[2] = tested on: New Zealand white rabbits; test: Survival studies in rabbits after lethal doses of radiation; format: in vivo; conditions: 120 mg/kg at 24 hours and 15 minutes before lethal doses of radiation
Experimental: (§1) Unlike in the mouse studies, clear evidence of improved repopulation of various hematologic cell lineages was not evident in these preliminary studies. Both solution and suspension formulations were tested.

[3] = tested on: white blood cells, platelets, hematocrit and hemoglobin levels; test: Hematology in irradiated rabbits; format: in vivo, New Zealand white rabbits
Experimental: as §1

[4] = biological target: CYP450 2C9 (Homo sapiens, UniProt P11712); format: in vitro ADME
Experimental: Additional biochemical studies were performed to screen for potential secondary or non-specific activities. ON 01210.Na was subjected to in vitro primary screening across a broad panel of 67 radioligand receptor binding assays and five cytochrome P450 enzymes: 1A2, 2C9, 2C19, 3A4, and 2D6. […] Only one cytochrome assay, CYP450 2C9, in which the activity was […] 98%, yielded a response that was considered significant. Thus, as a preliminary screen for safety and selectivity profiling, no targets were identified.

[5] = tested on: mice exposed to lethal doses of whole body ionizing radiation; test: In vivo survival studies in mice after lethal whole body radiation (30-day survival model)
Experimental: Since survival of animals after radiation exposure depends largely on the protection of the hematopoietic system, the effect of ON 01210.Na treatment on hematopoietic cell survival was investigated using various schedules before radiation exposure. The radioprotection of hematopoietic cells by ON 01210.Na was studied in an in vivo assay using a sub lethal dose of radiation. C3H/HEJ mice were treated with ON 01210.Na following various schedules in order to determine the optimal dose and schedule of ON 01210.Na for maximum protection of the hematopoietic system in mice.
In vivo survival studies in mice were designed to explore the effects of dose and schedule on survival, based on the well-established 30-day survival model, establish a dose reduction factor (DRF) for ON 01210.Na, compare two different formulations (suspension vs. solution) of ON 01210.Na; and show protection and recovery benefits of ON 01210.Na to the hematopoietic system and gastrointestinal tract of treated mice.
Two dose reduction factor (DRF) studies determined that the DRF for ON 01210.Na was 1.14 to 1.16.

[6] = tested on: jejunal crypt stem cells; test: Gastrointestinal tissue damage in irradiated mice; format: in vivo; conditions: pretreated prior to irradiation
[7] = Free radical scavenger / antioxidant activity
[8] = tested on: human skin fibroblasts; test: In vitro clonogenic survival assay, skin fibroblasts; format: cell-based
[9] = tested on: cells; format: cell-based
[10] = tested on: DNA damage; test: Comet assay, DNA damage caused by irradiation of cells; format: cell-based
[11] = tested on: human bone marrow cells; test: In vitro radiation protection of human bone marrow cells (methocult CFU); format: cell-based; conditions: 3 hour treatment, no radiation, all concentrations tested; sodium salt
[12] = tested on: human bone marrow cells; test: as above; format: cell-based
Experimental: FIG. 3. In vitro radiation protection of human bone marrow cells. Human bone marrow cells were treated with increasing concentrations of ON 01210.Na for 3 hours, and then irradiated with increasing doses of ionizing radiation. The cells were plated into methocult and the total number of CFUs was determined 14 days later.
Radiation protection assays were then performed (FIG. 3). Cells were treated with ON 01210.Na for 3 hours, irradiated, and plated in methocult. The total number of colony forming units was determined 14 days later. […] This compared very favorably when analyzed against protection studies using amifostine as a positive control.
Human bone marrow cells were treated with increasing concentrations of ON 01210.Na for 3 hours, and then irradiated with increasing doses of ionizing radiation. The cells were plated into methocult and the total number of CFUs was determined 14 days later.
When we plotted the survival curve at the optimal concentration of ON 01210.Na (FIG. 3C) we were able to calculate a dose reduction factor (DRF) of 1.6. We also tested the radiation protection activity of amifostine. Amifostine concentrations were selected that closely mimicked the therapeutic plasma concentrations. […] The calculated DRF value of 1.5 was determined from these experiments.

CYP450 2C9, sequence (P11712 whole entry): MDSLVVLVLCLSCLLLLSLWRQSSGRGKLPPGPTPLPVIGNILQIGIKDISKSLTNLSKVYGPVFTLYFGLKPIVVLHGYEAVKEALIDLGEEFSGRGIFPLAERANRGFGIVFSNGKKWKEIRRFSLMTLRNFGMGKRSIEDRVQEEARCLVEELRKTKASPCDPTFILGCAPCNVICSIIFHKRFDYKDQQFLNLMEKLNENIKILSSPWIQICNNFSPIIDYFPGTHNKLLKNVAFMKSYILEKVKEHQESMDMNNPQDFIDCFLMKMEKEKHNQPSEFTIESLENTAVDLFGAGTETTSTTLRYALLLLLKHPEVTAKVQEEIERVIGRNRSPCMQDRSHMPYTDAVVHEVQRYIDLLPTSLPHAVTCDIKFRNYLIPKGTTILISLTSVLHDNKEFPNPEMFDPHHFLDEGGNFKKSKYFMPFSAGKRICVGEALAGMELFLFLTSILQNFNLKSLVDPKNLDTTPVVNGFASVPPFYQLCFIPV

Q: For `O=C([O-])c1ccc(/C=C/S(=O)(=O)Cc2ccc(Cl)cc2)cc1.[Na+]` [ON 01210.Na, E-4-Carboxystyryl-4-chlorobenzylsulfone sodium salt], which “protection of white blood cells from radiation exposure” value ([1]; 500 mg/kg sc -24 h and -15 min before 5.5 Gy IR, sodium salt) is on record?
A: significantly protected

Q: What about the “recovery of white cell numbers” value ([1]; by 18 days) of the same compound?
A: more rapid recovery

Q: What about the “survival relative to vehicle-treated animals” value [2] of the same compound?
A: survival benefit

Q: And the “white blood cells, platelets, hematocrit and hemoglobin levels” value ([3]; 120 mg/kg at 24 hours and 15 minutes before lethal radiation)?
A: general protective trend

Q: And the “improved repopulation of hematologic cell lineages” value ([3]; preliminary studies)?
A: not evident

Q: What about the “CYP450 2C9 activity, stimulation” value [4] of the same compound?
A: 98%

Q: And the “protection against radiation lethality” value ([5]; 50 mg/kg to 500 mg/kg, p<0.05 vs. vehicle)?
A: dose-dependent protection

Q: What about the “protection from LD50/30 whole body radiation dose” value ([5]; 500 mg/kg pretreatment) of the same compound?
A: completely and reproducibly protected

Q: What about the “mice protected (survival)” value ([5]; double injection, minus 24 hour and minus 15 minutes, prior to lethal ionizing radiation) of the same compound?
A: 100%

Q: What about the “efficacy of solution formulation” value ([5]; same dosing regimen, solution formulation vs suspension) of the same compound?
A: similarly effective

Q: What about the “mice protected (survival)” value ([5]; single injection at minus 15 minutes prior to lethal ionizing radiation) of the same compound?
A: 100%

Q: What about the “damage to the jejunal crypt stem cells” value [6] of the same compound?
A: significantly less damage

Q: And the “activity as a free radical scavenger or antioxidant” value [7]?
A: did not exhibit any significant activity

Q: And the “protection from radiation exposure (clonogenic survival)” value [8]?
A: protected

Q: What about the cell cycle arrest [9] of the same compound?
A: did not cause cell cycle arrest

Q: And the cytotoxicity [9]?
A: not cytotoxic

Q: What about the “DNA damage caused by irradiation (Comet assays)” value [10] of the same compound?
A: reduced the amount of DNA damage

Q: What about the “toxicity of treatment without radiation” value [11] of the same compound?
A: non-toxic at all concentrations tested; also recorded: completely safe

Q: What about the “range of concentrations that protected cells” value [12] of the same compound?
A: 10 fold

Q: What about the “optimal concentration for radiation protection” value ([12]; 3 hours treatment) of the same compound?
A: 10 µM

Q: And the “radiation protection of human bone marrow cells” value ([12]; 3 hours treatment before irradiation, sodium salt)?
A: protect human bone marrow cells in a dose dependent manner; also recorded: protected human bone marrow cells in a dose responsive manner; also recorded: very effective; also recorded: reproducibly protect

Q: And the “dose reduction factor (DRF)” value ([12]; ON 01210.Na 10 μM (optimal), 3 hours before irradiation)?
A: 1.6
